# Test results: US20170042924A1, “MUSCLE ATROPHY INHIBITOR CONTAINING QUERCETIN GLYCOSIDE” (SUNTORY HOLDINGS LIMITED, priority 2014, published 2017)
# Columns and labels:
# [1] = tested on: MuRF-1; assay: MuRF-1 expression in gastrocnemius tissue, forced oral administration test; assay type: in vivo, mice; conditions: 200 mg/kg QG or equivalent amount of quercetin, with DEX 10 mg/L in drinking water, compared to the DEX group, FIG. 4
# Method: (§1) Thereafter, for the purpose of a detailed analysis of the molecular mechanisms, the expression of genes involved in muscle atrophy in gastrocnemius tissue was analyzed. RNA was extracted from the cryopreserved gastrocnemius samples using ISOGEN (Nippon Gene Co., Ltd.) and the RNeazy Mini Kit (Qiagen). Then, cDNA synthesis was conducted using the High-Capacity cDNA Reverse Transcriptional Kits (Applied biosystems). Based on the constructed cDNAs, the messenger RNA (mRNA) levels of the muscle atrophy-related genes (Atrogin-1, MuRF-1, Foxo1, Redd1, and Mstn) and the control gene (18SrRNA) were determined by quantitative reverse transcription PCR using the TaqMan Fast Universal PCR Master Mix (Applied biosystems). The values obtained were expressed as mean±standard deviation. The differences in average gene expression levels between the DEX group and each of the DEX+QG groups were analyzed by Student's t-test, with p-values below 5% being considered significant. BALB/c male mice aged 7 weeks were habituated for one week, and then allowed to ingest 10 mg/L dexamethasone (DEX) in drinking water ad libitum. […] The differences in average gene expression levels between the DEX group and each of the DEX+QG group and the DEX+Q group were analyzed by Dunnett's test, with p-values below 5% being considered significant.
# [2] = tested on: Redd1; assay: Redd1 expression in gastrocnemius tissue, forced oral administration test; assay type: in vivo, mice; conditions: 200 mg/kg QG or equivalent amount of quercetin, with DEX 10 mg/L in drinking water, compared to the DEX group, FIG. 4
# Method: as §1
# [3] = tested on: Foxo1; assay: Foxo1 expression in gastrocnemius tissue, forced oral administration test; assay type: in vivo, mice; conditions: 200 mg/kg QG or equivalent amount of quercetin, with DEX 10 mg/L in drinking water, compared to the DEX group, FIG. 4
# Method: as §1
# [4] = tested on: BALB/c male mice; assay: Dexamethasone-induced muscle atrophy, forced oral administration test, gastrocnemius weight/body weight ratio; assay type: in vivo; conditions: 200 mg/kg QG or equivalent amount of quercetin in terms of rutin, with DEX 10 mg/L in drinking water, compared to the DEX group, FIG. 3
# Method: BALB/c male mice aged 7 weeks were habituated for one week, and then allowed to ingest 10 mg/L dexamethasone (DEX) in drinking water ad libitum. Next, 200 mg/kg quercetin glycoside (QG) and an equivalent amount of quercetin (Q) in terms of rutin were each suspended in milliQ water containing 0.5% carboxymethyl cellulose sodium salt, and the suspensions were each forcibly administered orally […] to the mice for five days (from Monday to Friday). Then, administration of 10 mg/L DEX in drinking water was started from Friday. In the next week, forced oral QG/Q administration was resumed (from Monday to Thursday) concurrently with DEX administration in drinking water, and the mice were dissected on Friday. Sample collection after the administration test, muscle atrophy evaluation based on gastrocnemius weight (GW)/body weight (BW) ratio, and gene expression level analysis in gastrocnemius tissue were performed according to the procedures described in Examples 1 and 2. The differences in average gene expression levels between the DEX group and each of the DEX+QG group and the DEX+Q group were analyzed by Dunnett's test, with p-values below 5% being considered significant.
smiles,measurement,setting,value
O=c1c(O)c(-c2ccc(O)c(O)c2)oc2cc(O)cc(O)c12 [quercetin],expression of MuRF-1 increased by DEX administration,[1],not effective in inhibiting the expression
same,expression of Redd1 increased by DEX administration,[2],not effective in inhibiting the expression
same,expression of Foxo1 increased by DEX administration,[3],not effective in inhibiting the expression
same,GW/BW ratio (gastrocnemius weight divided by body weight),[4],not effective in improving the GW/BW ratio
